In DBAASP:
Values after ≈ are worked out from the molar mass of the structure shown. Values belong to the compound of their own block, whether it stands above or below them.

Tests used:
Test in all cases: ≥ marks a high value that may be exact or a test limit, other limits are often not marked, values filed in µg/mL are converted to µM
Pseudomonas aeruginosa = tested on: Pseudomonas aeruginosa
Staphylococcus aureus = tested on: Staphylococcus aureus
Bacillus subtilis 168 = tested on: Bacillus subtilis 168
Escherichia coli B = tested on: Escherichia coli B
[1] = tested on: Escherichia coli ATCC 25922
[2] = tested on: Candida albicans ATCC 90028
[3] = tested on: Staphylococcus aureus NCTC 8325
Escherichia coli JW0013 = tested on: Escherichia coli JW0013
[4] = tested on: Escherichia coli DH5alpha

MIC (Pseudomonas aeruginosa): 30 µM (≈ 42.4 µg/mL)
MIC (Staphylococcus aureus): 43.3 µM (≈ 61.2 µg/mL)
MIC (Bacillus subtilis 168): 1.5 µM (≈ 2.12 µg/mL)
MIC (Escherichia coli B): 5.8 µM (≈ 8.2 µg/mL)
Compound: CC[C@H](C)[C@H](NC(=O)[C@H](Cc1cnc[nH]1)NC(=O)[C@H](CCCCN)NC(=O)[C@H](CC(C)C)NC(=O)[C@H](CC(C)C)NC(=O)[C@H](CO)NC(=O)[C@H](CCSC)NC(=O)[C@H](Cc1ccccc1)NC(=O)[C@H](CCCCN)NC(=O)CN)C(=O)N[C@@H](CC(C)C)C(=O)N[C@@H](CCCCN)C(N)=O [GKFMSLLKHILK]

MIC [1]: 14 µM (≈ 36.1 µg/mL)
MIC [2]: 7 µM (≈ 18 µg/mL)
MIC [3]: 5 µM (≈ 12.9 µg/mL)
Compound: CC[C@H](C)[C@H](NC(=O)CNC(=O)[C@H](C)NC(=O)[C@@H](NC(=O)[C@@H](NC(=O)[C@@H]1CCCN1C(=O)[C@H](CC(C)C)NC(=O)[C@@H](N)Cc1ccccc1)[C@@H](C)CC)[C@@H](C)CC)C(=O)N[C@@H](C)C(=O)N[C@@H](C)C(=O)N[C@@H](CCCCN)C(=O)N[C@H](C(=O)N[C@@H](Cc1ccccc1)C(=O)N1CCC[C@H]1C(=O)N[C@@H](CCCCN)C(=O)N[C@H](C(=O)N[C@@H](Cc1ccccc1)C(=O)N[C@H]1CSSC[C@@H](C(=O)O)NC(=O)[C@H](CCCCN)NC(=O)[C@H](CCCCN)NC(=O)[C@H](CO)NC(=O)[C@H]([C@@H](C)CC)NC(=O)[C@H](C)NC1=O)[C@@H](C)CC)C(C)C [FLPIIAGIAAKVFPKIFCAISKKC]

MIC (Pseudomonas aeruginosa): 46.7 µM (≈ 70.2 µg/mL)
MIC (Staphylococcus aureus): 12.5 µM (≈ 18.8 µg/mL)
MIC (Bacillus subtilis 168): 1.1 µM (≈ 1.65 µg/mL)
MIC (Escherichia coli B): 2.2 µM (≈ 3.31 µg/mL)
Compound: CC[C@H](C)[C@H](NC(=O)[C@H](Cc1cnc[nH]1)NC(=O)[C@H](CCCCN)NC(=O)[C@H](CC(C)C)NC(=O)[C@H](CC(C)C)NC(=O)[C@H](Cc1cnc[nH]1)NC(=O)[C@H](CCSC)NC(=O)[C@H](Cc1c[nH]c2ccccc12)NC(=O)[C@H](CCCCN)NC(=O)CN)C(=O)N[C@@H](CC(C)C)C(=O)N[C@@H](CCCCN)C(N)=O [GKWMHLLKHILK]

MIC (Escherichia coli JW0013): 0.647 µM (≈ 1.6 µg/mL)
Compound: CC[C@H](C)[C@H](NC(=O)[C@H](CCCN=C(N)N)NC(=O)[C@H](CCCN=C(N)N)NC(=O)[C@@H]1CCCN1C(=O)[C@@H]1CCCN1C(=O)[C@H](CCCN=C(N)N)NC(=O)[C@H](CCCCN)NC(=O)[C@H](CCCN=C(N)N)NC(=O)[C@@H]1CCCN1C(=O)[C@H](CC(C)C)NC(=O)[C@H](CCCN=C(N)N)NC(=O)[C@@H]1CCCN1C(=O)[C@H](CCCN=C(N)N)NC(=O)[C@H](CCCCN)NC(=O)[C@H](CC(=O)O)NC(=O)[C@@H](N)C(C)C)C(=O)N[C@@H](Cc1ccc(O)cc1)C(=O)N[C@@H](CC(N)=O)C(=O)N[C@@H](CCCN=C(N)N)C(N)=O [VDKRPRLPRKRPPRRIYNR]

MIC [3]: ≥ 100 µM
Compound: CC(C)C[C@H](NC(=O)[C@@H](NC(=O)[C@H](CCCCN)NC(=O)[C@H](CO)NC(=O)[C@H](CC(C)C)NC(=O)[C@H](CC(C)C)NC(=O)[C@@H](NC(=O)[C@H](C)NC(=O)[C@H](CC(C)C)NC(=O)[C@H](Cc1ccccc1)NC(=O)[C@@H]1CCCN1C(=O)[C@H](CC(C)C)NC(=O)[C@@H](N)Cc1ccccc1)[C@@H](C)O)C(C)C)C(N)=O [FLPFLATLLSKVL]

MIC [1]: 2 µM (≈ 5.57 µg/mL)
MIC [2]: ≥ 46 µM
MIC [3]: ≥ 40 µM
Compound: CC[C@H](C)[C@@H]1NC(=O)[C@@H](NC(=O)[C@H](CCCCN)NC(=O)[C@H](CC(C)C)NC(=O)CNC(=O)[C@H](CCC(N)=O)NC(=O)[C@H](CC(C)C)NC(=O)[C@H](CC(C)C)NC(=O)[C@H](CCCCN)NC(=O)CNC(=O)[C@H](C)NC(=O)[C@H](CC(C)C)NC(=O)CNC(=O)[C@H](CCCCN)NC(=O)[C@H](CC(C)C)NC(=O)[C@@H](NC(=O)[C@H](CC(=O)O)NC(=O)[C@H](CC(C)C)NC(=O)[C@H](Cc2ccccc2)NC(=O)[C@H](CC(C)C)NC(=O)CN)[C@@H](C)O)CSSC[C@@H](C(=O)N[C@@H](CCCCN)C(=O)N2CCC[C@H]2C(=O)O)NC(=O)CNC(=O)[C@H](C)NC(=O)[C@H](CCCCN)NC1=O [GLFLDTLKGLAGKLLQGLKCIKAGCKP]

MIC (Escherichia coli JW0013): 2.02 µM (≈ 4.8 µg/mL)
Compound: CC[C@H](C)[C@H](NC(=O)[C@H](CCCN=C(N)N)NC(=O)[C@H](CCCN=C(N)N)NC(=O)[C@@H]1CCCN1C(=O)[C@@H]1CCCN1C(=O)[C@H](CCCN=C(N)N)NC(=O)[C@@H]1CCCN1C(=O)[C@H](Cc1cnc[nH]1)NC(=O)[C@@H]1CCCN1C(=O)[C@H](CC(C)C)NC(=O)[C@H](Cc1ccc(O)cc1)NC(=O)[C@@H]1CCCN1C(=O)[C@@H]1CCCN1C(=O)[C@H](CCCCN)NC(=O)[C@H](CC(=O)O)NC(=O)[C@@H](N)C(C)C)C(=O)N[C@@H](Cc1ccc(O)cc1)C(=O)N[C@@H](CC(N)=O)C(=O)N[C@@H](CCCN=C(N)N)C(N)=O [VDKPPYLPHPRPPRRIYNR]

MIC (Pseudomonas aeruginosa): 26.1 µM (≈ 47.9 µg/mL)
MIC (Staphylococcus aureus): 9.6 µM (≈ 17.6 µg/mL)
MIC (Bacillus subtilis 168): 0.7 µM (≈ 1.29 µg/mL)
MIC (Escherichia coli B): 0.7 µM (≈ 1.29 µg/mL)
Compound: CC[C@H](C)[C@H](NC(=O)[C@H](CCCCN)NC(=O)[C@H](CCCCN)NC(=O)[C@H](Cc1c[nH]c2ccccc12)NC(=O)[C@H](CC(N)=O)NC(=O)[C@@H](N)C(C)C)C(=O)N[C@@H](CC(C)C)C(=O)N[C@@H](CCCCN)C(=O)N[C@@H](CCCCN)C(=O)N[C@H](C(=O)N[C@H](C(=O)N[C@@H](CCCCN)C(=O)N[C@H](C(=O)N[C@H](C(=O)N[C@@H](CCCCN)C(N)=O)C(C)C)C(C)C)[C@@H](C)CC)[C@@H](C)CC [VNWKKILKKIIKVVK]

MIC (Escherichia coli JW0013): 1.95 µM (≈ 4.8 µg/mL)
Compound: CC[C@H](C)[C@H](NC(=O)[C@H](CCCN=C(N)N)NC(=O)[C@H](CCCN=C(N)N)NC(=O)[C@@H]1CCCN1C(=O)[C@@H]1CCCN1C(=O)[C@H](CCCN=C(N)N)NC(=O)[C@H](Cc1ccc(O)cc1)NC(=O)[C@H](CCCN=C(N)N)NC(=O)[C@@H]1CCCN1C(=O)[C@H](CC(C)C)NC(=O)[C@H](Cc1ccc(O)cc1)NC(=O)[C@@H]1CCCN1C(=O)[C@@H]1CCCN1C(=O)[C@H](CCCCN)NC(=O)[C@H](CC(=O)O)NC(=O)[C@@H](N)C(C)C)C(=O)N[C@@H](Cc1ccc(O)cc1)C(=O)N[C@@H](CC(N)=O)C(=O)N[C@@H](CCCN=C(N)N)C(N)=O [VDKPPYLPRYRPPRRIYNR]

MIC (Pseudomonas aeruginosa): 75 µM (≈ 89.8 µg/mL)
MIC (Staphylococcus aureus): > 100 µM
MIC (Bacillus subtilis 168): 4.7 µM (≈ 5.63 µg/mL)
MIC (Escherichia coli B): 23.3 µM (≈ 27.9 µg/mL)
Compound: CC[C@H](C)[C@H](NC(=O)[C@H](CCCCN)NC(=O)CNC(=O)[C@H](CC(C)C)NC(=O)[C@@H](NC(=O)[C@H](CCCCN)NC(=O)[C@H](CCCCN)NC(=O)[C@H](Cc1c[nH]c2ccccc12)NC(=O)[C@H](CC(N)=O)NC(=O)[C@@H](N)C(C)C)[C@@H](C)CC)C(N)=O [VNWKKILGKI]

MIC [1]: 20 µM (≈ 54 µg/mL)
MIC [3]: ≥ 80 µM
Compound: CC[C@H](C)[C@H](NC(=O)CNC(=O)[C@H](CCC(N)=O)NC(=O)[C@H](Cc1ccccc1)NC(=O)[C@@H](NC(=O)[C@H](CCCCN)NC(=O)[C@H](CCCCN)NC(=O)[C@H](CC(C)C)NC(=O)[C@H](C)NC(=O)[C@H](CC(N)=O)NC(=O)[C@H](CC(C)C)NC(=O)CN)C(C)C)C(=O)N[C@@H](Cc1cnc[nH]1)C(=O)N[C@@H](CCC(=O)O)C(=O)N[C@@H](C)C(=O)N[C@H](C(=O)N[C@@H](CCCCN)C(=O)N[C@@H](CC(C)C)C(=O)N[C@H](C(=O)N[C@@H](CC(N)=O)C(=O)N[C@@H](CCCCN)C(=O)N[C@@H](Cc1cnc[nH]1)C(=O)N[C@H](C(=O)N[C@@H](CCC(N)=O)C(=O)O)C(C)C)[C@@H](C)CC)[C@@H](C)CC [GLNALKKVFQGIHEAIKLINKHVQ]

MIC (Escherichia coli JW0013): 1.97 µM (≈ 4.8 µg/mL)
Compound: CC[C@H](C)[C@H](NC(=O)[C@H](CCCN=C(N)N)NC(=O)[C@H](CCCN=C(N)N)NC(=O)[C@@H]1CCCN1C(=O)[C@@H]1CCCN1C(=O)[C@H](CCCN=C(N)N)NC(=O)[C@@H]1CCCN1C(=O)[C@H](CCCN=C(N)N)NC(=O)[C@@H]1CCCN1C(=O)[C@H](CC(C)C)NC(=O)[C@H](Cc1ccc(O)cc1)NC(=O)[C@@H]1CCCN1C(=O)[C@H](Cc1cnc[nH]1)NC(=O)[C@H](CCCCN)NC(=O)[C@H](CC(=O)O)NC(=O)[C@@H](N)C(C)C)C(=O)N[C@@H](Cc1ccc(O)cc1)C(=O)N[C@@H](CC(N)=O)C(=O)N[C@@H](CCCN=C(N)N)C(N)=O [VDKHPYLPRPRPPRRIYNR]

MIC [4]: 6 µM (≈ 9.81 µg/mL)
MIC (Bacillus subtilis 168): 2 µM (≈ 3.27 µg/mL)
Compound: CC(C)C[C@H](NC(=O)[C@H](CCCCN)NC(=O)[C@H](CCCCN)NC(=O)[C@H](CC(C)C)NC(=O)[C@H](CC(C)C)NC(=O)[C@H](CCCCN)NC(=O)[C@H](CCCCN)NC(=O)[C@H](CC(C)C)NC(=O)[C@H](CC(C)C)NC(=O)[C@H](CCCCN)NC(=O)[C@H](CCCCN)NC(=O)[C@H](CC(C)C)NC(=O)[C@H](CC(C)C)NC(=O)CN)C(N)=O [GLLKKLLKKLLKKL]

MIC (Escherichia coli JW0013): 1.4 µM (≈ 3.3 µg/mL)
Compound: CC[C@H](C)[C@H](NC(=O)[C@H](CCCN=C(N)N)NC(=O)[C@H](CCCN=C(N)N)NC(=O)[C@@H]1CCCN1C(=O)[C@@H]1CCCN1C(=O)[C@H](CCCN=C(N)N)NC(=O)[C@@H]1CCCN1C(=O)[C@H](CCCN=C(N)N)NC(=O)[C@@H]1CCCN1C(=O)[C@H](CC(C)C)NC(=O)[C@H](Cc1ccc(O)cc1)NC(=O)[C@@H]1CCCN1C(=O)[C@H](C)NC(=O)[C@H](CCCCN)NC(=O)[C@H](CC(=O)O)NC(=O)[C@@H](N)C(C)C)C(=O)N[C@@H](Cc1ccc(O)cc1)C(=O)N[C@@H](CC(N)=O)C(=O)N[C@@H](CCCN=C(N)N)C(N)=O [VDKAPYLPRPRPPRRIYNR]
